What was measured:
[1] = system: E. coli 1057 R2 (rpoS^Q3stop, macB^N470D); settings: MHB + 0.9% NaCl
Outline: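 Broth microdilution (CLSI-based) used 10^6 CFU/mL mid-log cells in MHB with or without added NaCl, and peptides serially diluted in 0.1% BSA at 37 °C. Resistance induction used daily serial passage from sub-MIC wells, followed by 3 drug-free passages before the final MIC.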

[2] = system: Caco-2 cells; assay: Cytokine response, multiplex xMAP; assay type: cell-based, human; settings: 2 µM peptide, 24 h

CC[C@H](C)[C@H](NC(=O)[C@H](CCCCN)NC(=O)[C@H](CCC(=O)O)NC(=O)[C@H](CCCCN)NC(=O)[C@H](CO)NC(=O)[C@H](CCCCN)NC(=O)[C@H](CCCNC(=N)N)NC(=O)[C@H](Cc1ccccc1)NC(=O)[C@H](Cc1ccccc1)NC(=O)[C@H](CC(=O)O)NC(=O)CNC(=O)[C@H](CC(C)C)NC(=O)[C@@H](N)CC(C)C)C(=O)NCC(=O)N[C@@H](CCCCN)C(=O)N[C@@H](CCC(=O)O)C(=O)N[C@@H](Cc1ccccc1)C(=O)N[C@@H](CCCCN)C(=O)N[C@@H](CCCNC(=N)N)C(=O)N[C@H](C(=O)N[C@H](C(=O)N[C@@H](CCC(N)=O)C(=O)N[C@@H](CCCNC(=N)N)C(=O)N[C@H](C(=O)N[C@@H](CCCCN)C(=O)N[C@@H](CC(=O)O)C(=O)N[C@@H](Cc1ccccc1)C(=O)N[C@@H](CC(C)C)C(=O)N[C@@H](CCCNC(=N)N)C(=O)N[C@@H](CC(N)=O)C(=O)N[C@@H](CC(C)C)C(=O)N[C@H](C(=O)N1CCC[C@H]1C(=O)N[C@@H](CCCNC(=N)N)C(=O)N[C@H](C(=O)N[C@@H](CCC(=O)O)C(=O)N[C@@H](CO)C(=O)O)[C@@H](C)O)C(C)C)[C@@H](C)CC)C(C)C)[C@@H](C)CC [LL-37]
MIC [1]: 2 µM
Eotaxin [2]: < 2.04 pg/mL
GM-CSF [2]: 0,45 pg/ml
IFNa2 [2]: 3,72 pg/ml
IFNg [2]: < 1.31 pg/mL
IL-1RA [2]: < 2.66 pg/mL
IL-1a [2]: < 1.13 pg/mL
IL-1b [2]: < 2.88 pg/mL
IL-2 [2]: < 2.73 pg/mL
IL-3 [2]: < 3.02 pg/mL
IL-4 [2]: 43,73 pg/ml
IL-5 [2]: < 2.74 pg/mL
IL-6 [2]: < 2.42 pg/mL
IL-7 [2]: < 2.06 pg/mL
IL-8 [2]: 3,19 pg/ml
IL-9 [2]: < 3.08 pg/mL
IL-10 [2]: < 1.47 pg/mL
IL-12p40 [2]: < 3.69 pg/mL
IL-12p70 [2]: 0,29 pg/ml
IL-15 [2]: < 2.08 pg/mL
IL-17A [2]: < 0.94 pg/mL
IP-10 [2]: 114,78 pg/ml
RANTES [2]: 1050 pg/mL
TGF-a [2]: < 2.64 pg/mL
TNFa [2]: < 2.85 pg/mL
TNFb [2]: < 2.85 pg/mL
sCD40L [2]: 2,12 pg/ml

Source: publication PMC11484942, “Rumicidins are a family of mammalian host-defense peptides plugging the 70S ribosome exit tunnel” (Nature Communications, 2024)
